# Reference: PMC6104039 (Nature Communications, 2018)
# Several values for one entry are separate records, joined by “and”; a condition that tells them apart may be missing. Identical values can stand only once.
# Test system: adipose tissue
# Assay: Ceramide and SM species in epididymal adipose tissue
# Type: in vivo, mice
# Description: Male C57BL6/J mice were obtained from the Animal Resources Centre in Perth (WA, Australia). Mice were housed at 22 ± 1 °C with a controlled 12:12 h light-dark cycle and had ad libitum access to water and either chow (8% calories from fat) or HFD (45% calories from fat)[66] for 4–6 weeks. […] Treatment was commenced at the same time as mice were randomised to dietary groups. The experiments were approved by the UNSW animal care and ethics committee (ACEC 15/48B), and followed guidelines issued by the National Health and Medical Research Council of Australia.
# Lipids were extracted from frozen tissue samples or cells using a two-phase procedure with methyl-tert-butyl ether (MTBE)/methanol/water (10:3:2.5, v/v/v)[67]. Frozen tissue samples (~20 mg) were homogenized in 0.2 mL methanol containing 0.01% butylated hydroxytoluene (BHT), using a Precellys 24 homogenizer and Cryolys cooling unit (Bertin Technologies) with CK14 (1.4-mm ceramic) beads. The homogenates were spiked with an internal standard mixture comprising 5 nmole 19:0/19:0 phosphatidylcholine and 2 nmole each of 17:0/17:0 phosphatidylethanolamine, 17:0/17:0 phosphatidylserine, 17:0/17:0 d5-diacylglycerol, 17:0/17:0 phosphatidylglycerol, 14:0/14:0/14:0/14:0 cardiolipin, 18:1/12:0 SM, 18:1/17:0 ceramide, 18:1/12:0 glucosylceramide, 18:1/12:0 lactosylceramide, 18:1/12:0 sulfatide (all from Avanti Polar Lipids, USA), and 17:0/17:0/17:0 TAG (Cayman Chemical, USA), then transferred to 10 mL screw cap glass tubes. The homogenization tubes containing beads were then washed with another 0.3 mL methanol, and this wash was combined with the first methanol extract, after which 1.7 mL MTBE was added and the samples were sonicated in an ice-cold sonicating water bath (Thermoline Scientific, Australia) for 30 min. Phase separation was induced by addition of 417 µL of mass spectrometry-grade water followed by vortexing and centrifugation at 1000 × g for 10 min. The upper organic phase was collected into 5 mL glass tubes. The lower phase was re-extracted by adding 1 mL MTBE, 300 μL methanol, and 250 μL water. The organic phases were combined in the 5 mL glass tubes and dried under vacuum in a Savant SC210 SpeedVac (Thermo Scientific), then reconstituted in 500 μL methanol and stored at −20 °C until analysis.
# Lipidomic profiling was performed on a QExactive Plus mass spectrometer with heated electrospray ionization (HESI) probe and a Dionex UltiMate 2000 LC pump (Thermo Fisher Scientific). Extracts were resolved on a 2.1 × 100 mm Waters Acquity C18 UPLC column (1.7 µm […]), using a binary gradient in which mobile phase A consisted of acetonitrile:water (60:40), 10 mM ammonium formate, 0.1% formic acid; and mobile phase B was isopropanol:acetonitrile (90:10), 10 mM ammonium formate, 0.1% formic acid[68]. The flow rate was 260 µL/min and column oven 55 °C. Data was acquired in full scan/data-dependent MS^2 mode (full scan resolution 70,000 FWHM, scan range 400–1200 m/z). The ten most abundant ions in each cycle were subjected to MS^2 using an isolation window of 1.4 m/z, collision energy 30 eV, resolution 17,500, maximum integration time 110 ms and dynamic exclusion window 10 s. An exclusion list of background ions was used based on a solvent blank. LipidSearch v4.1.30 software (ThermoFisher Scientific) was used for chromatogram alignment, peak identification and integration. Each lipid peak was manually verified for column elution time and characteristic fragment ions. Data were then exported to an Excel spreadsheet for normalisation of each lipid to its class-specific internal standard, and lipid concentrations were calculated relative to the internal standard.
# [1] = HFD + P053, individual values, raw data Fig 3l
# [2] = HFD + P053, individual values, raw data Fig 3m
smiles,measurement,setting,value
"C[C@@](N)(CO)CCc1ccc(OCc2ccc(Cl)c(Cl)c2)cc1 [P053, (S)-2-amino-4-(4-(3,4-dichlorobenzyloxy)phenyl)-2-methylbutan-1-ol]",Ceramide 18:1/16:0 content of white adipose tissue,[1],7.201 and 8.054 and 16.149 and 4.934 and 4.539 and 15.378 and 9.982 and 4.818 and 11.537 and 7.369
same,Ceramide 18:1/18:0 content of white adipose tissue,[1],2.978 and 2.646 and 5.343 and 1.908 and 1.464 and 4.498 and 3.784 and 2.039 and 3.490 and 2.759
same,Ceramide 18:1/20:0 content of white adipose tissue,[1],1.960 and 1.699 and 2.742 and 0.969 and 1.134 and 2.311 and 2.304 and 0.962 and 2.130 and 1.825
same,Ceramide 18:1/22:0 content of white adipose tissue,[1],2.875 and 3.855 and 6.655 and 3.344 and 2.629 and 5.839 and 6.468 and 2.833 and 3.815 and 4.292
same,Ceramide 18:1/24:0 content of white adipose tissue,[1],2.389 and 3.918 and 5.983 and 4.215 and 2.773 and 8.001 and 8.331 and 4.355 and 4.168 and 5.733
same,Ceramide 18:1/24:1 content of white adipose tissue,[1],6.096 and 8.629 and 13.174 and 7.744 and 4.866 and 14.789 and 13.116 and 7.511 and 9.181 and 8.543
same,Ceramide 18:2/18:0 content of white adipose tissue,[1],1.491 and 1.389 and 1.897 and 0.793 and 0.611 and 2.474 and 2.012 and 0.838 and 2.141 and 1.309
same,Ceramide 18:2/22:0 content of white adipose tissue,[1],1.850 and 2.082 and 3.075 and 1.861 and 1.560 and 3.228 and 3.861 and 1.939 and 2.443 and 2.309
same,Ceramide 18:2/24:0 content of white adipose tissue,[1],2.470 and 3.270 and 4.398 and 3.698 and 2.656 and 6.741 and 6.951 and 4.253 and 4.048 and 5.078
same,Ceramide 18:2/24:1 content of white adipose tissue,[1],3.997 and 4.831 and 5.433 and 4.596 and 3.171 and 8.097 and 7.476 and 4.878 and 5.777 and 4.939
same,SM 34:1 content of white adipose tissue,[2],138.16 and 152.76 and 183.91 and 125.06 and 78.40 and 408.02 and 164.42 and 164.75 and 189.26 and 180.12
same,SM 34:2 content of white adipose tissue,[2],3.94 and 4.36 and 5.23 and 3.24 and 2.75 and 11.91 and 3.96 and 4.10 and 5.05 and 4.63
same,SM 36:1 content of white adipose tissue,[2],30.80 and 33.18 and 60.02 and 24.06 and 21.10 and 82.70 and 34.64 and 35.42 and 37.81 and 37.83
same,SM 36:2 content of white adipose tissue,[2],13.65 and 13.63 and 9.26 and 9.31 and 4.59 and 33.15 and 15.13 and 9.69 and 16.44 and 14.20
same,SM 38:1 content of white adipose tissue,[2],14.96 and 15.80 and 25.22 and 10.28 and 10.56 and 34.10 and 16.91 and 15.85 and 15.88 and 17.49
same,SM 38:2 content of white adipose tissue,[2],5.67 and 4.70 and 6.95 and 2.89 and 2.82 and 9.23 and 2.88 and 2.78 and 5.06 and 4.54
same,SM 40:1 content of white adipose tissue,[2],19.38 and 29.35 and 36.60 and 23.08 and 16.71 and 83.76 and 47.96 and 37.67 and 36.07 and 44.84
same,SM 40:2 content of white adipose tissue,[2],7.44 and 8.09 and 11.71 and 6.74 and 5.23 and 19.76 and 11.68 and 7.96 and 9.66 and 10.63
same,SM 42:1 content of white adipose tissue,[2],8.78 and 13.45 and 15.34 and 10.58 and 7.52 and 42.80 and 18.82 and 17.05 and 15.81 and 20.73
same,SM 42:2 content of white adipose tissue,[2],28.15 and 38.15 and 51.68 and 31.28 and 20.55 and 119.48 and 50.63 and 47.22 and 48.80 and 50.51
same,SM 42:3 content of white adipose tissue,[2],9.88 and 12.29 and 14.77 and 10.62 and 6.46 and 36.48 and 16.98 and 13.87 and 16.08 and 14.63
same,C18 ceramide or SM and other ceramide or SM species in adipose tissue,chow or HFD,did not significantly impact
